These results are taken from patent US11123340B2, “Small-molecule UT-A-selective urea transport inhibitors” (The Regents of the University of California, priority 2014, dated 2021).

SMILES strings stand for the structures.

In general, IC50 refers to the point on the concentration scale where inhibition reaches its midpoint.

One series concerns rats. Description: Diuretic studies in rats. In kind it is in vivo, rat. Particulars: for urine osmolality / urine volume: control, hydrated rats. How it is done: Compound effects on urine output, osmolality and urea concentration were investigated in two conditions. Rats were placed in metabolic cages with water and food available ad libitum and spontaneously voided urine was collected for 3 h. Rats were then injected intravenously with 20 mg/kg UTAinh-E02 or UTAinh-F11 in formulations listed above (or vehicle alone), and returned to the metabolic cages without access to water, but free access to food. Spontaneously voided urine was collected every 3 h for a 6-h period. In some experiments, rats were administered dDAVP (4 μg/kg, IP) just before compound (or vehicle) injection and 3 h later. […] Urine osmolality was measured in water-diluted urine samples by freezing-point osmometry (Micro-osmometer; Precision Systems, Natick, Mass.). Urea concentration was determined by a colorimetric enzymatic assay as described above.
Diuretic efficacy was tested in rats under two different conditions. Inhibitor effects on maximum urinary concentrating ability was studied in rats administered the V2-selective agonist dDAVP at 4 μg/kg every 3 hours. Inhibitors were administered intravenously at 20 mg/kg as done in the pharmacokinetics experiments above. […] Each inhibitor produced a marked increase in volume and reduction in osmolality in urine collected over 0-3 h.
In a separate set of studies UTAinh-E02 was tested in control, hydrated rats.

The next series deals with PIM-1 kinase (Homo sapiens, UniProt P11309). The following applies: Ren et al. (2011); cited from earlier work.
Sequence of PIM-1 kinase (P11309 whole entry): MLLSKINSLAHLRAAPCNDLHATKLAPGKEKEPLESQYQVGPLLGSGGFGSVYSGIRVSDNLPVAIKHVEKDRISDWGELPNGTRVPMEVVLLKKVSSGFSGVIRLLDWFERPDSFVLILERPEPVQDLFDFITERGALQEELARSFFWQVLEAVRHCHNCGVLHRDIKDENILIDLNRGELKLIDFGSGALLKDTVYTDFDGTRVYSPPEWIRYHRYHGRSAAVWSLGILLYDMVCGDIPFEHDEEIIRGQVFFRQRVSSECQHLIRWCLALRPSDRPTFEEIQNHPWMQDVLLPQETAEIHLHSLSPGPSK
Another series has as its target T1, rat UT-B (Rattus norvegicus, UniProt P97689).
T1 construct: endogenous in cells; host or cells: rat erythrocytes (whole rat blood)
T1 sequence (P97689 1-384): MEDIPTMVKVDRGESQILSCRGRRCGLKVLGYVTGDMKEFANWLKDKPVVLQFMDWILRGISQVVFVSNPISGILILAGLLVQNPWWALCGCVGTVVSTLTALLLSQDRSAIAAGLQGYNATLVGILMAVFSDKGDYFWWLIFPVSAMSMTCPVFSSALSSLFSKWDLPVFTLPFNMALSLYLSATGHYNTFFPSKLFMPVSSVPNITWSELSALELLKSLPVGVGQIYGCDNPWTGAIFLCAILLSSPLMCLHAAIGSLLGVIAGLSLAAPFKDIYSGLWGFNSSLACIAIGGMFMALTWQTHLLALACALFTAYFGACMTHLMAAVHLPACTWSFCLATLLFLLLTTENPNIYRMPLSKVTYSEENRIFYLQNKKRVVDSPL
The series can be described thus: UT-B inhibition, erythrocyte lysis assay. In kind it is cell-based. The method, then:
As described (see, e.g., Levin et al. (2007) FASEB J. 21, 551-563), whole rat blood was diluted to a hematocrit of ˜1.5% in PBS containing 1.25 M acetamide and 5 mM glucose. Erythrocyte suspensions (100 μL) were added to 96-well round-bottom microplates and test compounds (1 μL) were added. After 15 min incubation, 20 μL of the erythrocyte suspension was added rapidly to each well containing 180 μL of PBS. Following vigorous mixing, erythrocyte lysis was quantified by absorbance at 710 nm. Non-lysed controls (isosmolar buffer) and lysed controls (0.7 mM phloretin) were added in each plate as negative and positive controls, respectively. Percentage erythrocyte lysis was computed as: % lysis=100% (Aneg−Atest)/(Aneg−Apos), where A is absorbance at 710 nm.
Inhibitor selectivity for rat UT-A1 versus UT-B was investigated using an erythrocyte lysis assay of rat UT-B urea transport, which involved measurement of hypotonic lysis (by near-infrared absorbance) of acetamide-loaded erythrocytes following rapid dilution into acetamide-free buffer.

Series [1] is described as follows: Inhibitor permeability across MDCK cell monolayers (LC/MS). In kind it is in vitro ADME, canine. The following applies: dog; MDCK monolayers on porous filters, 20 μM; read-out: transepithelial permeability coefficient. The method, then: UT-A1 expressing MDCK cells were grown on 12-mm diameter collagen-coated Transwell inserts (0.4 μm pore size; Costar, Costar, N.Y.) to form tight monolayers (resistance>500 Ωcm^2), as described (see, e.g., Levin et al. (2007) FASEB J. 21, 551-563). Urea flux in the basolateral-to-apical direction was measured in response to a 15 mM urea gradient in which PBS containing forskolin (10 μM), with or without UT-A1 inhibitor and 0.7 mM phloretin, was added to both the apical-facing (0.2 mL) and basal-facing (2 mL) surfaces. After 30 min the basal-facing solution was replaced by PBS containing test compound+15 mM urea. Apical fluid samples (5 μL) were collected at specified times for enzymatic assay of urea (QUANTICHROME Urea Assay Kit; BioAssay Systems, Hayward, Calif.). To measure inhibitor permeability across MDCK cell layers, compounds (20 μM) were added on the basal-facing surface and fluid samples (20 μL) from the apical-facing surface were collected at different time points and analyzed by LC/MS.
To further evaluate the potential site of inhibitor action, the kinetics of UT-A1 inhibition was measured by assay of UT-A1 inhibition at different times after compound addition. […] To assess inhibitor membrane permeability transport of UTAinh-E02 and UTAinh-F11 across MDCK monolayers grown on porous filters by LC/MS was measured. Transport of UTAinh-F11 was much faster than that of UTAinh-E02 (FIG. 3C, right lower panel), with computed transepithelial permeability coefficients of […] and 1.1×10^−5 cm/s, respectively. From surface-to-volume considerations, the equilibration times were computed of UTAinh-E02 and UTAinh-F11 to be 250 and 14 s, respectively, in MDCK cells, which are consistent with intracellular sites of action of both inhibitors.

Consider `CC(=O)Nc1ccc(-c2csc(-c3c[nH]c4ccccc34)n2)cc1` [UTA1inh-E02, N-(4-(2-(1H-indol-3-yl)thiazol-4-yl)phenyl)acetamide], for which, in the series on rats (0-3 h), the urine osmolality result is “reduced” and the urine volume entry is “significantly increased”. For the same compound, in the series on rats (3-6 h collection), the urine osmolality result is on record as “returned to near baseline” and the urine volume result was “returned to near baseline”. In the series with rats (dDAVP rats, after inhibitor treatment), the “ratio of urea vs. non-urea solutes in urine” value was “increased”. Moreover, at PIM-1 kinase, the “PIM-1 kinase inhibitor potency” value is reported as “micromolar potency”. Also, the “selectivity for UT-A1 versus UT-B” value on rat UT-B (rat UT-A1 versus rat UT-B) is recorded as “high selectivity”.
For the compound `COc1ccc(C)cc1S(=O)(=O)Nc1ccc(Cl)c(N2CCCS2(=O)=O)c1` [UTA1inh-F11, N-[4-Chloro-3-(1,1-dioxido-1,2-thiazolidin-2-yl)phenyl]-2-methoxy-5-methylbenzene-sulfonamide], the Papp B→A at 20 μM in series [1] came out at 11 ×10⁻⁶ cm/s. Half-maximal inhibition at rat UT-B (rat erythrocytes) (IC50) required 10 µM.
